Measurements taken from article PMC6591251, “Discovery of potent necroptosis inhibitors targeting RIPK1 kinase activity for the treatment of inflammatory disorder and cancer metastasis” (Cell Death & Disease, 2019).

What was measured:
Assay in all cases: RBC kinase panel
Type in all cases: biochemical
ITK = target: T1, ITK (Homo sapiens, UniProt Q08881); conditions: ATP 10 μM, Data1, Data2
T1 construct: purchased Reaction Biology Corporation
Method in brief: (§1)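 Test compound was screened at a single concentration of 1 μM, in duplicate, across a panel of 369 human kinases. Every kinase reaction contained 10 μM ATP.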

DYRK4 = target: T2, DYRK4 (Homo sapiens, UniProt Q9NR20); conditions: ATP 10 μM, Data1, Data2
T2 construct: purchased Reaction Biology Corporation
Method in brief: as §1

YSK4/MAP3K19 = target: T3, YSK4/MAP3K19 (Homo sapiens, UniProt Q56UN5); conditions: ATP 10 μM, Data1, Data2
T3 construct: purchased Reaction Biology Corporation
Method in brief: as §1

PAK3 = target: T4, PAK3 (Homo sapiens, UniProt O75914); conditions: ATP 10 μM, Data1, Data2
T4 construct: purchased Reaction Biology Corporation
Method in brief: as §1

FGR = target: T5, FGR (Homo sapiens, UniProt P09769); conditions: ATP 10 μM, Data1, Data2
T5 construct: purchased Reaction Biology Corporation
Method in brief: as §1

ERK1 = target: T6, ERK1 (Homo sapiens, UniProt P27361); conditions: ATP 10 μM, Data1, Data2
T6 construct: purchased Reaction Biology Corporation
Method in brief: as §1

TAOK1 = target: T7, TAOK1 (Homo sapiens, UniProt Q7L7X3); conditions: ATP 10 μM, Data1, Data2
T7 construct: purchased Reaction Biology Corporation
Method in brief: as §1

BMX/ETK = target: T8, BMX/ETK (Homo sapiens, UniProt P51813); conditions: ATP 10 μM, Data1, Data2
T8 construct: purchased Reaction Biology Corporation
Method in brief: as §1

ZAP70 = target: T9, ZAP70 (Homo sapiens, UniProt P43403); conditions: ATP 10 μM, Data1, Data2
T9 construct: purchased Reaction Biology Corporation
Method in brief: as §1

ALK6/BMPR1B = target: T10, ALK6/BMPR1B (Homo sapiens, UniProt O00238); conditions: ATP 10 μM, Data1, Data2
T10 construct: purchased Reaction Biology Corporation
Method in brief: as §1

BRK = target: T11, BRK (Homo sapiens, UniProt Q13882); conditions: ATP 10 μM, Data1, Data2
T11 construct: purchased Reaction Biology Corporation
Method in brief: as §1

GRK2 = target: T12, GRK2 (Homo sapiens, UniProt P25098); conditions: ATP 10 μM, Data1, Data2
T12 construct: purchased Reaction Biology Corporation
Method in brief: as §1

PKN2/PRK2 = target: T13, PKN2/PRK2 (Homo sapiens, UniProt Q16513); conditions: ATP 10 μM, Data1, Data2
T13 construct: purchased Reaction Biology Corporation
Method in brief: as §1

SSTK/TSSK6 = target: T14, SSTK/TSSK6 (Homo sapiens, UniProt Q9BXA6); conditions: ATP 10 μM, Data1, Data2
T14 construct: purchased Reaction Biology Corporation
Method in brief: as §1

CDK16/cyclin Y (PCTAIRE) = target: T15, CDK16/cyclin Y (PCTAIRE) (Homo sapiens, UniProt Q00536); conditions: ATP 10 μM, Data1, Data2
T15 construct: purchased Reaction Biology Corporation
Method in brief: as §1

ULK2 = target: T16, ULK2 (Homo sapiens, UniProt Q8IYT8); conditions: ATP 10 μM, Data1, Data2
T16 construct: purchased Reaction Biology Corporation
Method in brief: as §1

GCK/MAP4K2 = target: T17, GCK/MAP4K2 (Homo sapiens, UniProt Q12851); conditions: ATP 10 μM, Data1, Data2
T17 construct: purchased Reaction Biology Corporation
Method in brief: as §1

WNK1 = target: T18, WNK1 (Homo sapiens, UniProt Q9H4A3); conditions: ATP 10 μM, Data1, Data2
T18 construct: purchased Reaction Biology Corporation
Method in brief: as §1

STK22D/TSSK1 = target: T19, STK22D/TSSK1 (Homo sapiens, UniProt Q9BXA7); conditions: ATP 10 μM, Data1, Data2
T19 construct: purchased Reaction Biology Corporation
Method in brief: as §1

HGK/MAP4K4 = target: T20, HGK/MAP4K4 (Homo sapiens, UniProt O95819); conditions: ATP 10 μM, Data1, Data2
T20 construct: purchased Reaction Biology Corporation
Method in brief: as §1

CDK9/cyclin T1 = target: T21, CDK9/cyclin T1 (Homo sapiens, UniProt P50750); conditions: ATP 10 μM, Data1, Data2
T21 construct: purchased Reaction Biology Corporation
Method in brief: as §1

DYRK2 = target: T22, DYRK2 (Homo sapiens, UniProt Q92630); conditions: ATP 10 μM, Data1, Data2
T22 construct: purchased Reaction Biology Corporation
Method in brief: as §1

CAMK1g = target: T23, CAMK1g (Homo sapiens, UniProt Q96NX5); conditions: ATP 10 μM, Data1, Data2
T23 construct: purchased Reaction Biology Corporation
Method in brief: as §1

EPHA3 = target: T24, EPHA3 (Homo sapiens, UniProt P29320); conditions: ATP 10 μM, Data1, Data2
T24 construct: purchased Reaction Biology Corporation
Method in brief: as §1

CAMK2a = target: T25, CAMK2a (Homo sapiens, UniProt Q9UQM7); conditions: ATP 10 μM, Data1, Data2
T25 construct: purchased Reaction Biology Corporation
Method in brief: as §1

EPHB2 = target: T26, EPHB2 (Homo sapiens, UniProt P29323); conditions: ATP 10 μM, Data1, Data2
T26 construct: purchased Reaction Biology Corporation
Method in brief: as §1

P38d/MAPK13 = target: T27, P38d/MAPK13 (Homo sapiens, UniProt O15264); conditions: ATP 10 μM, Data1, Data2
T27 construct: purchased Reaction Biology Corporation
Method in brief: as §1

PKA = target: T28, PKA (Homo sapiens, UniProt P17612); conditions: ATP 10 μM, Data1, Data2
T28 construct: purchased Reaction Biology Corporation
Method in brief: as §1

EPHA5 = target: T29, EPHA5 (Homo sapiens, UniProt P54756); conditions: ATP 10 μM, Data1, Data2
T29 construct: purchased Reaction Biology Corporation
Method in brief: as §1

FGFR2 = target: T30, FGFR2 (Homo sapiens, UniProt P21802); conditions: ATP 10 μM, Data1, Data2
T30 construct: purchased Reaction Biology Corporation
Method in brief: as §1

JAK3 = target: T31, JAK3 (Homo sapiens, UniProt P52333); conditions: ATP 10 μM, Data1, Data2
T31 construct: purchased Reaction Biology Corporation
Method in brief: as §1

EPHB4 = target: T32, EPHB4 (Homo sapiens, UniProt P54760); conditions: ATP 10 μM, Data1, Data2
T32 construct: purchased Reaction Biology Corporation
Method in brief: as §1

LIMK2 = target: T33, LIMK2 (Homo sapiens, UniProt P53671)
T33 construct: purchased Reaction Biology Corporation
Method in brief: as §1

T33 sequence (P53671 whole entry): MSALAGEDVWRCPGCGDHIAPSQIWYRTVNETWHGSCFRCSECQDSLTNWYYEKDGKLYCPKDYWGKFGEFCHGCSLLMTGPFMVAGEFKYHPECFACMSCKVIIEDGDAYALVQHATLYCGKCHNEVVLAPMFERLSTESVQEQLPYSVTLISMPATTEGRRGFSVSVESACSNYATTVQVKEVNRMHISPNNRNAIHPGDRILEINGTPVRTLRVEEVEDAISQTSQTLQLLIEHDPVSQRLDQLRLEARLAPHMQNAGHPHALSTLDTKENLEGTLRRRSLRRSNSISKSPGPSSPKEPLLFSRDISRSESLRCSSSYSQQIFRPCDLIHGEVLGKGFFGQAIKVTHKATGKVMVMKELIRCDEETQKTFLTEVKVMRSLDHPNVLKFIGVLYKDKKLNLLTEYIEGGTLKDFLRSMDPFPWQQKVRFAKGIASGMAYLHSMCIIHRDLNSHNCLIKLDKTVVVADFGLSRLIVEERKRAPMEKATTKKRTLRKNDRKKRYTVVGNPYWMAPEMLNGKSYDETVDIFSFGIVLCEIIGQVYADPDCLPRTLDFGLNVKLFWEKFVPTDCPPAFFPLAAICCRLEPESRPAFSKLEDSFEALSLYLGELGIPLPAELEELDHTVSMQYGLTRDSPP
T31 sequence (P52333 whole entry): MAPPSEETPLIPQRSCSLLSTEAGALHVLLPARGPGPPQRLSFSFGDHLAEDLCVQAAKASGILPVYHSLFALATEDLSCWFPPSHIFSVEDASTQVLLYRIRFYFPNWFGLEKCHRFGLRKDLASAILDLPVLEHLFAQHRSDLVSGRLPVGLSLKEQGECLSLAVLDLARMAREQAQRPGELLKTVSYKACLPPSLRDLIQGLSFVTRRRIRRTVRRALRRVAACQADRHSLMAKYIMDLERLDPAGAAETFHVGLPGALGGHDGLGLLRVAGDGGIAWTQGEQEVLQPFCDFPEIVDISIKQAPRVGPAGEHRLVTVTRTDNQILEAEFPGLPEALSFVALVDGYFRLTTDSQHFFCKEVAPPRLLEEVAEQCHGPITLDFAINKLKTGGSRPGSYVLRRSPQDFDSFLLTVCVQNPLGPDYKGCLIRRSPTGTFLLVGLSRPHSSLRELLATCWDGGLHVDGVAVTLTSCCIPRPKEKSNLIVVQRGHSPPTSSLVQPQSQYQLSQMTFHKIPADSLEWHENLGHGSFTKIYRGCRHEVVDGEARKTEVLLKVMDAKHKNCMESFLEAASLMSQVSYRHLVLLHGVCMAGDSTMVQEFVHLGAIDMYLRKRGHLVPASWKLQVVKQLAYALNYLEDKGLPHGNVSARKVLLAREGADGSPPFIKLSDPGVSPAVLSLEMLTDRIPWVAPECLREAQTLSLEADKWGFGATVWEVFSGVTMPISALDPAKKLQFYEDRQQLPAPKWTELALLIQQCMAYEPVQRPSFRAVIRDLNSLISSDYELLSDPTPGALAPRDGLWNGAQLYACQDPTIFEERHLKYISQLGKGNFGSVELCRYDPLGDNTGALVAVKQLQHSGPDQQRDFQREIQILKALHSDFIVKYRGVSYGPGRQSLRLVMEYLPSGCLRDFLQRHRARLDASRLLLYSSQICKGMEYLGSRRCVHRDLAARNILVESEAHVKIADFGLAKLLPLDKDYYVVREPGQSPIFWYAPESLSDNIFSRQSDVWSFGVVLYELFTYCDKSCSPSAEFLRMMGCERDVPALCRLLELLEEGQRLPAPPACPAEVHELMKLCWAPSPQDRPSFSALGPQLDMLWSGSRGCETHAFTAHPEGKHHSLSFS
T6 sequence (P27361 whole entry): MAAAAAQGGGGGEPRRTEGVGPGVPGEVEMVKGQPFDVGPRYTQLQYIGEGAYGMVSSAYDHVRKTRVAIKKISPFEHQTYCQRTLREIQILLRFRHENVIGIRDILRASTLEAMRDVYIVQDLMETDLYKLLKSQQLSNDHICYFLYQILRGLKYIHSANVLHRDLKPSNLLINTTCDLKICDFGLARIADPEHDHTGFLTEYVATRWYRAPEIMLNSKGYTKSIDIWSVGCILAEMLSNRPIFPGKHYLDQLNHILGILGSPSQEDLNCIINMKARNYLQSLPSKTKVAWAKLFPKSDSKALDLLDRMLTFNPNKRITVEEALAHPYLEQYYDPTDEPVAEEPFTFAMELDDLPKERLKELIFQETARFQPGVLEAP
T25 sequence (Q9UQM7 whole entry): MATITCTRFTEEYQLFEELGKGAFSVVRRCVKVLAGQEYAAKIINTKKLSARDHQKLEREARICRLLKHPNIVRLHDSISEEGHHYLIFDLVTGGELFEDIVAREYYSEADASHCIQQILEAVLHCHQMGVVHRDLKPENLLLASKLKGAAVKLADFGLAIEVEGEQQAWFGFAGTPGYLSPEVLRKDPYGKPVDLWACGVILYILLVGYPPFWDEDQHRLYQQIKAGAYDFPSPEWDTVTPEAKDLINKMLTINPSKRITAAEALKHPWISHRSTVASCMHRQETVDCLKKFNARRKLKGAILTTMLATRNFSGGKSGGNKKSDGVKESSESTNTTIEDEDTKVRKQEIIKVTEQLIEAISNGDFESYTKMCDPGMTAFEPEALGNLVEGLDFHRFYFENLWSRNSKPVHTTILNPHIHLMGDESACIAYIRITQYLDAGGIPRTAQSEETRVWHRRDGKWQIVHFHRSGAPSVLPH
T10 sequence (O00238 14-502): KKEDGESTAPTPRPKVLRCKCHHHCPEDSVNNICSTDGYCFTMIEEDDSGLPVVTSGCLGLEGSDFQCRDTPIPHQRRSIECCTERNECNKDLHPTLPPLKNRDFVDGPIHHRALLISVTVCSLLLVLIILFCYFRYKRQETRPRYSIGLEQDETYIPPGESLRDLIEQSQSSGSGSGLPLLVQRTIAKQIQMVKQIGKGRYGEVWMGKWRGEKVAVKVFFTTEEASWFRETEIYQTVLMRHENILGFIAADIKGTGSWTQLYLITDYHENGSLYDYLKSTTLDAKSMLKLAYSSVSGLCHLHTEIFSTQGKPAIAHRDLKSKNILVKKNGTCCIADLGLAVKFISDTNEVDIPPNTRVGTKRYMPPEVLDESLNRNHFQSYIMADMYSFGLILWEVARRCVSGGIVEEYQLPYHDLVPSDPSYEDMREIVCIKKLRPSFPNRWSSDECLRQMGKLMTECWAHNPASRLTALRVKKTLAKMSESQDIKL
T15 sequence (Q00536 whole entry): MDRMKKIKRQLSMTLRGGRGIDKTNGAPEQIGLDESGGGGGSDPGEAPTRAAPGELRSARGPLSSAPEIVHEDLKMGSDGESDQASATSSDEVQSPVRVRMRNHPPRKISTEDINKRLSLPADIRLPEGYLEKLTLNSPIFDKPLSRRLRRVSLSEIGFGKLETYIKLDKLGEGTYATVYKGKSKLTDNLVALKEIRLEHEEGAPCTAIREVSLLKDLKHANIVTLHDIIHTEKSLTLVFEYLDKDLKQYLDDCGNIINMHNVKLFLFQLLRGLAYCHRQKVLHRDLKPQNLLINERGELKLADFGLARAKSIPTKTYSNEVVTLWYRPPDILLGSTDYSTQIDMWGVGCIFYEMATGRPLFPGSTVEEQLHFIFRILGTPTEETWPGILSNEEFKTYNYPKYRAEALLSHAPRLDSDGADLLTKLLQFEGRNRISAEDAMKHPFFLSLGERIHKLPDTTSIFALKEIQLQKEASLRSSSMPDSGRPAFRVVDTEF
T15 sequence (Q8ND76 whole entry partner): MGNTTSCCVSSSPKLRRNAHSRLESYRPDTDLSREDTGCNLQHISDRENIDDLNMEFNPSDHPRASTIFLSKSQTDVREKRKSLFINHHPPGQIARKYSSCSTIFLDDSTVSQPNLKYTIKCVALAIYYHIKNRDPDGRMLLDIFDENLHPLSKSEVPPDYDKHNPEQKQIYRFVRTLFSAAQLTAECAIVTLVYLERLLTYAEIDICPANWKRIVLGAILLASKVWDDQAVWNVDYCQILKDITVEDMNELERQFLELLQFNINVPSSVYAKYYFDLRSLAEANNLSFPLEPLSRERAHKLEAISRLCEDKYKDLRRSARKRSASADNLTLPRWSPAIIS
T32 sequence (P54760 16-987): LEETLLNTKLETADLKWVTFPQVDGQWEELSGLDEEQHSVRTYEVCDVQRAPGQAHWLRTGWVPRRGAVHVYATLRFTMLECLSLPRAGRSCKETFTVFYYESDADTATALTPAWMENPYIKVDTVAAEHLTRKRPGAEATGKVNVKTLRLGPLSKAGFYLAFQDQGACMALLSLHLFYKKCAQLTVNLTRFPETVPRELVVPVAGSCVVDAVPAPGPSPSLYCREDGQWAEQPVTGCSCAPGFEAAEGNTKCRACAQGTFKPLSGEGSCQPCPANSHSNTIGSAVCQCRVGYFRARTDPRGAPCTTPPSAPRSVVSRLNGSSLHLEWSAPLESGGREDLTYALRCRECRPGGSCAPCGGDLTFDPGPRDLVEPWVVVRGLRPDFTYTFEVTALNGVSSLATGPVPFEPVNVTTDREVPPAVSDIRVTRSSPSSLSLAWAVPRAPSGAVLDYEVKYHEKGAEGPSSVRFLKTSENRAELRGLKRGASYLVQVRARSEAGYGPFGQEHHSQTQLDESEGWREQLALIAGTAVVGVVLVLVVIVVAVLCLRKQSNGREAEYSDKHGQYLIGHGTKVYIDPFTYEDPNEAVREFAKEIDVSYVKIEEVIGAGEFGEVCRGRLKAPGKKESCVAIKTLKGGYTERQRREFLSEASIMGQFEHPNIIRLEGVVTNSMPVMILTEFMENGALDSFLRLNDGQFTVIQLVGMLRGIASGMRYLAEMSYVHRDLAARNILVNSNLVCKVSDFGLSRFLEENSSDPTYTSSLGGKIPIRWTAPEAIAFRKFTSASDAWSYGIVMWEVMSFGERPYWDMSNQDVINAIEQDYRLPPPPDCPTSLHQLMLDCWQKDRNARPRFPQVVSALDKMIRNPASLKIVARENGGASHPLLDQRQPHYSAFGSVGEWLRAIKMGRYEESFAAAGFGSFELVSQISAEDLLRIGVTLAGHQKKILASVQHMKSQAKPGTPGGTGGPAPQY

Q: How did the Activity% (ITK; 1 μM) turn out when CC(=O)Nc1nc2ccc(-c3cnc(C)c(NC(=O)OC4CCCCC4)c3)cc2s1 [PK68, cyclohexyl (5-(2-acetamidobenzo[d]thiazol-6-yl)-2-methylpyridin-3-yl)carbamate] was run?
A: 88.47%

Q: What about the activity at 1 µM (ITK) of the same molecule?
A: 88.6%

Q: What about the Activity% (DYRK4; 1 μM) of the same molecule?
A: 102.24%

Q: And the activity at 1 µM (DYRK4)?
A: 102%

Q: And the Activity% (YSK4/MAP3K19; 1 μM)?
A: 94.66%

Q: And the activity at 1 µM (YSK4/MAP3K19)?
A: 95%

Q: What about the Activity% (PAK3; 1 μM) of the same molecule?
A: 99.63%

Q: And the activity at 1 µM (PAK3)?
A: 103%

Q: And the Activity% (FGR; 1 μM)?
A: 82.32%

Q: What about the activity at 1 µM (FGR) of the same molecule?
A: 87.2%

Q: What about the Activity% (ERK1; 1 μM) of the same molecule?
A: 87.90%

Q: And the activity at 1 µM (ERK1)?
A: 91.6%

Q: And the Activity% (TAOK1; 1 μM)?
A: 79.31%

Q: What about the activity at 1 µM (TAOK1) of the same molecule?
A: 79.8%

Q: And the Activity% (BMX/ETK; 1 μM)?
A: 99.71%

Q: And the activity at 1 µM (BMX/ETK)?
A: 99.9%

Q: And the Activity% (ZAP70; 1 μM)?
A: 105.87%

Q: What about the activity at 1 µM (ZAP70) of the same molecule?
A: 107%

Q: And the Activity% (ALK6/BMPR1B; 1 μM)?
A: 91.83%

Q: And the activity at 1 µM (ALK6/BMPR1B)?
A: 92.5%

Q: What about the Activity% (BRK; 1 μM) of the same molecule?
A: 96.14%

Q: What about the activity at 1 µM (BRK) of the same molecule?
A: 97.5%

Q: What about the Activity% (GRK2; 1 μM) of the same molecule?
A: 99.02%

Q: And the activity at 1 µM (GRK2)?
A: 101%

Q: What about the Activity% (PKN2/PRK2; 1 μM) of the same molecule?
A: 62.44%

Q: And the activity at 1 µM (PKN2/PRK2)?
A: 62.6%

Q: And the Activity% (SSTK/TSSK6; 1 μM)?
A: 91.18%

Q: And the activity at 1 µM (SSTK/TSSK6)?
A: 91.3%

Q: And the Activity% (CDK16/cyclin Y (PCTAIRE); 1 μM)?
A: 96.14%

Q: What about the activity at 1 µM (CDK16/cyclin Y (PCTAIRE)) of the same molecule?
A: 99.2%

Q: And the Activity% (ULK2; 1 μM)?
A: 101.80%

Q: What about the activity at 1 µM (ULK2) of the same molecule?
A: 102%

Q: What about the Activity% (GCK/MAP4K2; 1 μM) of the same molecule?
A: 96.82%

Q: And the activity at 1 µM (GCK/MAP4K2)?
A: 97.6%

Q: And the Activity% (WNK1; 1 μM)?
A: 111.38%

Q: And the activity at 1 µM (WNK1)?
A: 112%

Q: And the Activity% (STK22D/TSSK1; 1 μM)?
A: 103.75%

Q: What about the activity at 1 µM (STK22D/TSSK1) of the same molecule?
A: 104%

Q: And the Activity% (HGK/MAP4K4; 1 μM)?
A: 82.64%

Q: What about the activity at 1 µM (HGK/MAP4K4) of the same molecule?
A: 84.4%

Q: And the Activity% (CDK9/cyclin T1; 1 μM)?
A: 110.56%

Q: And the activity at 1 µM (CDK9/cyclin T1)?
A: 111%

Q: What about the Activity% (DYRK2; 1 μM) of the same molecule?
A: 85.35%

Q: And the activity at 1 µM (DYRK2)?
A: 86.3%

Q: What about the Activity% (CAMK1g; 1 μM) of the same molecule?
A: 92.94%

Q: What about the activity at 1 µM (CAMK1g) of the same molecule?
A: 93%

Q: And the Activity% (EPHA3; 1 μM)?
A: 98.26%

Q: And the activity at 1 µM (EPHA3)?
A: 102%

Q: And the Activity% (CAMK2a; 1 μM)?
A: 99.17%

Q: What about the activity at 1 µM (CAMK2a) of the same molecule?
A: 100%

Q: And the Activity% (EPHB2; 1 μM)?
A: 101.30%

Q: And the activity at 1 µM (EPHB2)?
A: 102%

Q: What about the Activity% (P38d/MAPK13; 1 μM) of the same molecule?
A: 95.45%

Q: What about the activity at 1 µM (P38d/MAPK13) of the same molecule?
A: 95.8%

Q: What about the Activity% (PKA; 1 μM) of the same molecule?
A: 105.35%

Q: What about the activity at 1 µM (PKA) of the same molecule?
A: 105%

Q: What about the Activity% (EPHA5; 1 μM) of the same molecule?
A: 100.43%

Q: And the activity at 1 µM (EPHA5)?
A: 102%

Q: And the Activity% (FGFR2; 1 μM)?
A: 88.90%

Q: And the activity at 1 µM (FGFR2)?
A: 91%

Q: And the Activity% (JAK3; 1 μM)?
A: 92.17%

Q: And the activity at 1 µM (JAK3)?
A: 92.9%

Q: And the Activity% (EPHB4; 1 μM)?
A: 99.18%

Q: What about the activity at 1 µM (EPHB4) of the same molecule?
A: 101%

Q: What about the Activity% (LIMK2; 1 μM, ATP 10 μM, Data1, Data2) of the same molecule?
A: 42.64%

Q: And the activity at 1 µM (LIMK2; 1 μM, ATP 10 μM, Data1, Data2)?
A: 44%

Q: What about the inhibition at 1 µM (LIMK2; at 1000 nM) of the same molecule?
A: > 50%
